Values after ≈ are worked out from the molar mass of the structure shown. Where two headings read alike, the source gives them in different places.
Legend:
Escherichia coli NC101 = experiment: Bacterial MIC assay (broth dilution); type: cell-based; conditions: read-out: MICs by compound
Protocol: (§1) MICs of compounds against different bacterial species were determined using a modified version of a broth microdilution protocol which has been previously reported.^1 Briefly, cultures of each species indicated were inoculated from frozen stocks in deoxygenated Wilkins-Chalgren Anaerobic Medium (WCAM) inside of an anerobic chamber with an 92.5% N2/5% CO2/2.5% H2 atmosphere. Cultures were grown for 24-48 hours in a 37° C. incubator at which point an OD600-measurement was taken for each culture and was accordingly diluted in fresh WCAM to an equivalent of OD600=0.01. Diluted cultures were then distributed into the wells of a clear, flat-bottom 384-well plate and the compound of interest was added to a final DMSO concentration of 2% (or DMSO only for positive controls). […] mineral oil (Millipore Sigma) was deposited on top of the cultures and plates were covered with a clear adhesive plate seal. Plates were incubated at 37° C. for 16 hours, at which point the OD600 of all wells was recorded on a SpectraMax M2 plate reader (Molecular Devices).

Bifidobacterium longum = experiment: Bacterial MIC assay (broth dilution); type: cell-based; conditions: read-out: MICs by compound
Enterococcus faecalis = experiment: Bacterial MIC assay (broth dilution); type: cell-based; conditions: read-out: MICs by compound
Lactobacillus rhamnosus = experiment: Bacterial MIC assay (broth dilution); type: cell-based; conditions: Lacticaseibacillus rhamnosus, read-out: MICs by compound
Klebsiella oxytoca = experiment: Bacterial MIC assay (broth dilution); type: cell-based; conditions: read-out: MICs by compound
[1] = test system: a variety of bacterial strains from common gut phyla, including E. coli; experiment: Turbidity MIC assay, all strains together; type: cell-based; conditions: Escherichia coli; all strains tested; upper limit tested 200 μM; read-out: MICs in liquid culture
Excerpt: Compound 3 is an inhibitor of colibactin-associated genotoxicity. Since colibactin is produced in the context of the gut microbiota, it is essential to understand how 3 can affect other members of this community and whether it remains an effective inhibitor under these conditions. […] A turbidity assay was used to determine minimum inhibitory concentrations (MICs) in liquid culture of 1-4 against a variety of bacterial strains from common gut phyla, including E. coli (Table 3).
as §1

purified ClbP = purified ClbP (Escherichia coli, UniProt Q0P7K6); experiment: ClbP fluorescence activity assay (in vitro); type: biochemical, Escherichia coli CFT073; conditions: for speed of reaching maximum potency, in words: slow-binding inhibition assay, 100 nM
Excerpt: Constructs and protein purification for in vitro assays. ClbP constructs described in this publication were derived from a previously described plasmid containing the Escherichia coli CFT073 ClbP sequence (GenBank ID: NP_754344.1) inserted between the NdeI and XhoI restriction sites of pET29b (Addgene plasmid #48244).^14 All in vitro experiments used a construct bearing a C-terminal 10×His tag. This longer polyhistidine-tag was obtained by extension of the previously described 6×His tag through site-directed mutagenesis. All site-directed mutations were introduced using the Quikchange mutagenesis protocol (Stratagene) and confirmed by Sanger DNA sequencing of the whole open reading frame. Plasmids were transformed into chemically competent C41(DE3) (Lucigen) cells and proteins were isolated as previously described.^34
ClbP fluorescence activity assay (in vitro). Assays were performed in a buffer containing 50 mM Tris, 200 mM NaCl, 0.02% w/v DDM at pH 8.0 with 25 nM purified ClbP and 25 μM fluorogenic substrate in a total volume of 20 μL.^34 Purified ClbP was defrosted on ice from stocks stored at −80° C. Stocks were diluted to 50 nM enzyme in assay buffer in the wells of a black, flat-bottom 384-well plate and the appropriate inhibitor in DMSO or DMSO was added to a final concentration of 1%. For experiments testing different inhibitor concentrations, reactions were allowed to sit for 1 hour at room temperature. For experiments testing different preincubation times, the inhibitor in DMSO was added to each reaction X minutes before initiating the reaction, where X is the time indicated on the x-axis for that sample. For experiments to test whether hydrolysis of the boronic ester was rate-limiting, the inhibitor was added to buffer with no enzyme present and allowed to sit at room temperature for the time indicated before adding the enzyme. In all cases, reactions were initiated by the addition of 10 μL, of buffer containing the 50 μM fluorogenic substrate to achieve a final concentration of 25 μM and pipetting once with a multichannel pipette to mix. Reaction progress was monitored in a plate reader (Bio-Tek Synergy HTX multimode plate reader) with an excitation filter of 360/40 nm and an emission filter of 440/20 nm. “% activity” was determined based on the measured relative fluorescence units (RFU) of each condition after 1 hour using the following formula: […]

[2] = molecular target: E. coli BL21 overexpressing ClbP (Escherichia coli, UniProt Q0P7K6); experiment: ClbP fluorescence activity assay (live cells); type: cell-based
Protocol: ClbP fluorescence activity assay (live cells). One 5 mL starter culture each E. coli BL21 pET-29b-ClbP and pET-29b-ClbP-S95A were inoculated from frozen stocks and grown overnight at 37° C. in LB medium supplemented with 50 μg/ml kanamycin (LB+kan). Overnight cultures were diluted 1:100 in fresh LB+kan and incubated at 37° C. to an OD600 of 0.3, at which point protein expression was induced by the addition of 500 μM isopropyl β-D-1-thiogalactopyranoside (IPTG) and cultures were moved to 15° C. for 4 hours. Cultures were then aliquoted in a black 384-well plate and the appropriate concentration of inhibitor was added as a DMSO stocks to a final concentration of 1% DMSO in a volume of 30 μL. Reactions were initiated by the addition of 10 μL of LB+kan+IPTG containing the fluorogenic substrate (final concentration=100 μM). Plastes were incubated at 25° C. with intermittent shaking while taking regular fluorescence measurements in a Bio-Tek Synergy HTX multimode plate reader with an excitation filter of 360/40 nm and an emission filter of 440/20 nm. “% activity” was determined based on the formula above using RFU measurements after 7 hours.

ClbP = experiment: LC-MS quantitation of N-myristoyl-D-Asn produced by pks+ E. coli; type: cell-based, E. coli BW25113 BACpks; conditions: pks+ E. coli (BW pks), versus DMSO
Protocol: LC-MS quantitation of N-myristoyl-D-Asn produced by pks^+ E. coli. One 5 mL starter culture each of E. coli BW25113 BACpks and E. coli BW25113 BACpksΔclbP was inoculated from frozen stocks and grown overnight at 37° C. in LB medium supplemented with 35 μg/ml chloramphenicol (LB+cam). Overnights were diluted 1:100 in fresh LB+cam+1% DMSO with the appropriate concentration of inhibitor and grown for 20 hours at 37° C. in a deep well plate in a shaking incubator. A 500 μL aliquot was taken from each sample, flash frozen in liquid nitrogen and lyophilized to dryness. Lyophilized pellets were extracted with 500 μL LC-MS grade methanol which contained 100 nM d27-N-myristoyl-D-asparagine as an internal standard, prepared as previously described, and vortexed for 30 seconds. After centrifugation at 16,500×g for 10 minutes in a tabletop microcentrifuge, supernatants were transferred to fresh 1.5 mL tubes and stored at −20° C. overnight. Samples were centrifuged again, and the supernatants analyzed by LC-MS/MS on a Waters Xevo TQ-S UPLC-triple quadrupole mass spectrometer using an Agilent Poroshell 120 EC-C18 column (2.7 μm, 4.6 mm×50 mm). […]

[3] = test system: FANCD2 in HeLa cell extracts; experiment: Western blot for FANCD2; type: cell-based, human; conditions: 0.5 μg/mL mitomycin C or 7.5 μg/mL cisplatin, 4 hours, no bacteria
Protocol: Western Blot for FANCD2. Infections were carried out as described above. For conditions which involved other small molecules, no bacteria were introduced during the infection and cells were treated with either 0.5 μg/mL mitomycin C (MMC) or 7.5 μg/mL cisplatin under the same conditions for 4 hours. 20 hours after infection, cells were lysed directly in the culture wells (Lysis buffer: 50 mM Tris, (pH 8.0), 150 mM NaCl, 1% Triton X-100, 0.5% Sodium deoxycholate, 0.05% sodium dodecylsulfate, 1 mM MgSO4, SIGMAFAST Protease inhibitor mix, 100 U/mL benzonase (Millipore-Sigma). Lysates were then spun down at 16,000×g to remove particulates and the supernatant was mixed 1:1 with 2X Laemmli sample buffer (Bio-Rad) containing 50 mg/mL dithiothreitol (DTT). Samples were then heated at 70° C. for 10 minutes and run on an SDS-PAGE gel (3-8% Tris-Acetate Novex gel, Invitrogen) at 150 V for 1.5 hours at 4° C. Bands were then transferred to PVDF membranes (100 V, 1 hour at 4° C.) and blocked with 10% skim milk powder in TBST buffer at 4° C. overnight. Blots were probed sequentially with either mouse anti-actin (1.5 μg/mL) or mouse anti-FANCD2 (0.1 μg/mL) primary antibodies (Thermo Fisher Scientific, Catalog #MA511869 and MA123347), followed by a peroxidase-conjugated goat anti-mouse secondary antibody (Jackson ImmunoResearch product 115-035-003, 0.08 μg/mL). Each probing step was conducted for 90 minutes at room temperature n 2.5% skim milk powder in TBST. Before imaging, blots were washed 3×15 minutes each in TBST […]. Blots were imaged using the SuperSignal™ West Pico PLUS Chemiluminescent Substrate (Thermo Fisher Scientific) kit following the manufacturer's instructions and imaged using an Azure Biosystems c300 imager.

[4] = anaerobic, OD600 after 15 hours

Row | SMILES | MIC (Escherichia coli NC101; Escherichia coli NC101, anaerobic, OD600 after 15 hours) [µM] | MIC (Bifidobacterium longum; [4]) [µM] | MIC (Enterococcus faecalis; [4]) [µM] | MIC (Lactobacillus rhamnosus; Lactobacillus rhamnosus, anaerobic, OD600 after 15 hours) [µM] | MIC (Klebsiella oxytoca; [4]) [µM] | MIC [1] [µM] | MIC (Escherichia coli NC101; Escherichia coli, NC101, 15 h) [µM] | MIC (Bifidobacterium longum; 15 h) [µM] | MIC (Enterococcus faecalis; 15 h) [µM] | IC50 (purified ClbP) [nM] | MIC (Lactobacillus rhamnosus; 15 h) [µM] | MIC (Klebsiella oxytoca; 15 h) [µM] | IC50 [2] [nM] | speed of reaching maximum potency, in words (purified ClbP) | quantity of N-myristoyl-D-Asn prodrug released (ClbP) | abundance of FANCD2-Ub in HeLa cells [3]
1 | O=C(N[C@H](CO)[C@H](O)c1ccc([N+](=O)[O-])cc1)C(Cl)Cl [CAM, Chloramphenicol, reference compound] | 25 (≈ 8.08 µg/mL) | 12.5 (≈ 4.04 µg/mL) | 50 (≈ 16.2 µg/mL) | 25 (≈ 8.08 µg/mL) | 6.25 (≈ 2.02 µg/mL) |  |  |  |  |  |  |  |  |  |  | 
2 | CCCCCC(=O)N[C@H](CC(N)=O)B1OC(C)(C)C(C)(C)O1 [Compound 1] |  |  |  |  |  | > 200 | > 200 | > 200 | > 200 | 40 | > 200 | > 200 | 5.6 |  |  | 
3 | CC1(C)OB([C@@H](CC(N)=O)NC(=O)c2ccc3ccccc3c2)OC1(C)C [Compound 2] |  |  |  |  |  | > 200 | > 200 | > 200 | > 200 | 34 | > 200 | > 200 | 7.2 | achieved their maximum potency faster than compound 4 |  | 
4 | CC1(C)OB([C@@H](CC(N)=O)NC(=O)c2ccccc2)OC1(C)C [Compound 4] |  |  |  |  |  | > 200 | > 200 | > 200 | > 200 | 69 | > 200 | > 200 | 27 | showed a significant lag | slightly lower potency than the others | 
5 | N.N.[Cl][Pt][Cl] [cisplatin, reference compound] |  |  |  |  |  |  |  |  |  |  |  |  |  |  |  | increase in abundance of FANCD2-Ub
6 | CO[C@@]12[C@H](COC(N)=O)C3=C(C(=O)C(C)=C(N)C3=O)N1C[C@@H]1N[C@@H]12 [mitomycin C, reference compound] |  |  |  |  |  |  |  |  |  |  |  |  |  |  |  | increase in abundance of FANCD2-Ub

Reference: US12115176B2, “Methods and compositions relating to ClbP inhibition” (PRESIDENT AND FELLOWS OF HARVARD COLLEGE, priority 2021, dated 2024)
